Experimental data reported in patent US11345659B2, “Pipecolic esters for inhibition of the proteasome” (THE BOARD OF REGENTS OF THE UNIVERSY OF TEXAS SYSTEM, priority 2018, dated 2022).
Where two headings read alike, the source gives them in different places.

Columns and labels:
[1] = target: T1, 20 S human housekeeping proteasome (Homo sapiens, UniProt P25787+P25789); assay: ChT-L peptidase activity of 20 S proteasome activated with Rpt5 peptide; format: biochemical
T1 construct: purified from erythrocytes; purchased Enzo Life Sciences, Inc. (Farmingdale, N.Y.); host or cells: human erythrocytes
Description: Human housekeeping 20 S and 26 S and complexes purified from erythrocytes were purchased from Enzo Life Sciences, Inc. (Farmingdale, N.Y.). The 1 mg/ml stock 20 S proteasome was diluted to 0.2 mg/ml working solution in 50 mM Tris/HCl, pH 8 containing 20% glycerol (dilution buffer). For the 26 S proteasome stock, the dilution buffer was supplemented with 2 mM ATP, 1 mM MgCl2, and 1 mM DTT (dithiothreitol). The ChT-L peptidase activity was measured as arbitrary intensity units of fluorescence emitted by 7-amino-4-methylcoumarin (AMC) released from the canonical model peptide substrate succinyl-LeuLeuValTyr-methylcoumarin (SucLLVY-MCA; Bachem Bioscience Inc., Philadelphia, Pa.), used at concentration of 100 μM. Free AMC (Sigma-Aldrich, St. Louis, Mo.) was used as the standard. The Rpt5 C-terminal peptide was synthesized (standard solid-phase peptide chemistry) and purified to at least 98% purity by GenScript (Piscataway, N.J.). The Rpt5 peptide and the peptide substrate were dissolved in dimethylsulfoxide (DMSO) and such stock solutions were stored at −20° C. The total concentration of DMSO in final reaction mixtures never exceeded 3% (vol/vol).
The reaction was carried out in 96-well plates, in 100 μL of reaction mixture, for 1 hour at 37° C. In the case of 20 S proteasome, the reaction mixture consisted of 45 mM Tris/HCl, pH 8, 100 mM KCl with premixed 10 μM Rpt5 peptide and 100 μM Suc-LLVY-MCA, to which 200 ng (nearly […]) of proteasome and desired concentration of tested compounds in 1 μL of DMSO were added. To test the activity of 26 S proteasome under conditions challenging coordination of the three pairs of peptidase active centers, a mixture of three canonical substrates specific for the ChT-L (SucLLVY-MCA), trypsin-like (T-L; BocLRR-MCA) and caspase-like (Casp-L; Z-LLE-MCA) was used with each of the substrates at 33.3 μM (100 μM of the total substrate concentration). The reaction mixture in this case consisted of 50 mM Tris/HCl, pH 8, 20 mM NaCl, premixed with the substrates and 2 mM ATP, to which 200 ng (nearly 0.1 nmol) of the 26 S working solution and desired concentration of tested compounds in 0.5 μL of DMSO were added. The reaction rates were calculated from a linear segment of kinetic curves constructed from measurements in 1-minutes intervals (Fluoroskan Ascent plate reader; Thermo Fisher Scientific Inc., Waltham, Mass.). Reaction rates were calculated using a linear fit executed by Slope Analyzer and Enzyme Kinetics applications launched within Origin Pro 2017 (OriginLab). Specific activity of the control 20 S proteasome activated with the Rpt5 peptide was in the range of 1.4 to 2.3 nanomoles of AMC product released by 1 mg of 20 S per second (1.95±0.24; n=18). Specific activity of the control 26 S proteasome challenged with three substrates reached on average 0.28±0.06 nanomoles of AMC product released by 1 mg of the enzyme per second (n=6). For comparison, degradation of the canonical Suc-LLVY-MCA substrate by the control 26 S proteasome preceded with a rate in the range of 0.6-0.8 nanomoles of AMC released per mg of the enzyme per second. The data are presented as mean±SD or as a representative set from at least 3 independent experiments.
The compounds were evaluated using the 20 S human housekeeping proteasome. It was activated with the Rpt5 derived 10-residue peptide that contains the C-terminal HbYX (hydrophobic-Tyr-any AA) motif activating the proteasome in trans and to some extend mimic the activation by the 19 S regulatory particle (Osmulski and Gaczynska (2013) Molecular pharmacology 84: 104-113; Smith et al. (2006) J. Struct. Biol. 156: 72-83; Smith et al. (2007) Mol. Cell 27: 731-744). Proteolytic activity was monitored over time using a fluorogenic peptide substrate specific for the chymotrypsin-like active center (ChT-L, Suc-LLVY-AMC) in the presence of a concentration range of the inhibitors. […]

[2] = tested on: Human multiple myeloma RPMI 8226 cells; assay: Proliferation of RPMI 8226 cells, live cell count by Trypan Blue exclusion; format: cell-based
Description: Human multiple myeloma RPMI 8226 cells were purchased from American Type Culture Collection (ATCC; Manassas, Va.) and cultured according to ATCC specifications. […] The content of live cells was determined by excluding the Trypan Blue-stained cells. The cells were counted with TC20 Automated Cell Counter (Bio-Rad Laboratories, Hercules, Calif.) and EC50 was calculated with Origin Pro 2017 (OriginLab Corporation, Northampton, Mass.). When indicated, the cells were harvested, washed twice in PBS, resuspended in dilution buffer and stored in −80° C. To prepare crude lysates the thawed preparations were vortexed with glass beads and centrifuged for 5 min 5,000×g (4° C.). The supernate was centrifuged for 20 min 14,000×g. The resulting supernate was used as “crude lysate.” SDS-PAGE was carried in 12% acrylamide, Tris-glycine gels from Invitrogen. Chameleon Duo (Li-Cor) and Rainbow RPN800E (GE Healthcare) molecular weight standards were separated on each gel alongside lysates. The proteins were transferred to nitrocellulose membrane in a semi-dry system. The membranes were probed with specific primary antibodies from Life Technologies (S6, PS6) and Li-Cor (COX IV), and then with secondary antibodies from Li-Cor. In each experiment visualization of S6, PS6 and COX IV was performed on the same membrane with Odyssey Infrared Imaging System (Li-Cor).
The effects of compound 3 observed in vitro prompted its influence on the proliferation of cultured cancer cells to be tested, namely the multiple myeloma RPMI 8226 line. […] Such relatively low EC50, as compared to in vitro determined IC50 values for peptidase activities (2-3 μM; FIG. 3A and FIG. 3B) should come to no surprise. […] The in vitro readout of single peptidase activities is a useful and convenient measure of the catalytic prowess of proteasome. However, especially in the case of allosteric regulators, it may not fully reflect the important structural and functional effects.
Referring to FIG. […] The data are averages (±SD) of three-to-five independent experiments. […]

With COc1cc(CCCOC(=O)[C@@H]2CCCCN2C(=O)OCc2ccccc2)cc(OC)c1OC [Compound 3, 1-benzyl 2-(3-(3,4,5-trimethoxyphenyl)propyl) (S)-piperidine-1,2-dicarboxylate] the IC50 ([1]; ChT-L, Suc-LLVY-AMC substrate, 20 S activated with Rpt5 peptide, read-out: IC50) was 2000 nM, the IC50 ([1]; summary of FIG. 3A and FIG. 3B, read-out: in vitro determined IC50 values for peptidase activities) was 2000 to 3000 nM and the “remaining ChT-L activity” value ([1]; tRpt5 added first, n=3) was 53%±7%. The activity at 0.2 µM ([2]; RPMI 8226, 0.2 μM, 24 hours, read-out: cell proliferation, % of control) was 60 to 65% and the EC50 ([2]; RPMI 8226, 48 hours, read-out: EC50, content of live cells) was 550 nM.
